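Interpolation was linear, between the two tested concentrations surrounding the appropriate level; five concentrations were tested over 48 hours in 96-well plates. Here, GI50 denotes the concentration required for 50% inhibition of growth.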 Activity calls are given as the source filed them. No stated cut-off is given here; in the data, active = GI50 up to about 1.1 µM and inactive = higher.
Tests used:
Assay in all cases: growth of human tumour cells (NCI), 48 h
[1] = system: DMS-114
[2] = system: COLO 205
[3] = system: SW-620
[4] = system: CAKI-1
[5] = system: OVCAR-8
[6] = system: 786-0
[7] = system: MOLT-4
[8] = system: SN12C
[9] = system: NCI-H23
[10] = system: UACC-257
[11] = system: SK-MEL-28
[12] = system: HOP-92
[13] = system: ACHN
[14] = system: RXF 393
[15] = system: XF498
[16] = system: OVCAR-5
[17] = system: LOX IMVI
[18] = system: HOP-18
[19] = system: NCI-H460
[20] = system: HOP-62
[21] = system: UACC-62
[22] = system: UO-31
[23] = system: DMS-273
[24] = system: HCT-116
[25] = system: Malme-3M
[26] = system: NCI-H522
[27] = system: A549
[28] = system: DLD-1
[29] = system: HT-29
[30] = system: RPMI-8226
[31] = system: KM-20L2
[32] = system: OVCAR-3
[33] = system: SNB-75
[34] = system: CCRF-CEM
[35] = system: SK-MEL-5
[36] = system: IGROV-1
[37] = system: SF-295
[38] = system: OVCAR-4
[39] = system: M14
[40] = system: A498
[41] = system: HCT-15
[42] = system: SNB-19
[43] = system: U-251
[44] = system: K562
[45] = system: NCI-H226
[46] = system: EKVX
[47] = system: KM12
[48] = system: M19-MEL
[49] = system: SNB-78
[50] = system: SF-268
[51] = system: HL-60
[52] = system: TK-10
[53] = system: LXFL 529
[54] = system: SF-539
[55] = system: BT-549
[56] = system: SK-OV-3
[57] = system: SK-MEL-2
[58] = system: NCI/ADR-RES
[59] = system: HCC 2998
[60] = system: MCF7
[61] = system: MDA-MB-231
[62] = system: MDA-N
[63] = system: Hs-578T
[64] = system: SR
[65] = system: DU-145
[66] = system: T47D
[67] = system: MDA-MB-435
[68] = system: PC-3

Q: `COc1cc(/C=C/c2cccnc2)cc(OC)c1OC` was tested. Which GI50 [1] did it give?
A: > 100 µM (inactive)

Q: What about the GI50 [2] of the same compound?
A: > 100 µM (inactive)

Q: What about the GI50 [3] of the same compound?
A: > 100 µM (inactive)

Q: And the GI50 [4]?
A: > 100 µM (inactive)

Q: And the GI50 [5]?
A: > 100 µM (inactive)

Q: What about the GI50 [6] of the same compound?
A: > 100 µM (inactive)

Q: And the GI50 [7]?
A: > 100 µM (inactive)

Q: And the GI50 [8]?
A: > 100 µM (inactive)

Q: What about the GI50 [9] of the same compound?
A: > 100 µM (inactive)

Q: What about the GI50 [10] of the same compound?
A: > 100 µM (inactive)

Q: What about the GI50 [11] of the same compound?
A: > 100 µM (inactive)

Q: What about the GI50 [12] of the same compound?
A: 31.8 µM (inactive)

Q: And the GI50 [13]?
A: > 100 µM (inactive)

Q: And the GI50 [14]?
A: > 100 µM (inactive)

Q: What about the GI50 [15] of the same compound?
A: > 100 µM (inactive)

Q: What about the GI50 [16] of the same compound?
A: 58.9 µM (inactive)

Q: What about the GI50 [17] of the same compound?
A: > 100 µM (inactive)

Q: What about the GI50 [18] of the same compound?
A: 53.1 µM (inactive)

Q: And the GI50 [19]?
A: > 100 µM (inactive)

Q: What about the GI50 [20] of the same compound?
A: 70.6 µM (inactive)

Q: And the GI50 [21]?
A: 81.1 µM (inactive)

Q: What about the GI50 [22] of the same compound?
A: 36.5 µM (inactive)

Q: What about the GI50 [23] of the same compound?
A: > 100 µM (inactive)

Q: What about the GI50 [24] of the same compound?
A: > 100 µM (inactive)

Q: What about the GI50 [25] of the same compound?
A: > 100 µM (inactive)

Q: What about the GI50 [26] of the same compound?
A: 53.5 µM (inactive)

Q: What about the GI50 [27] of the same compound?
A: > 100 µM (inactive)

Q: What about the GI50 [28] of the same compound?
A: > 100 µM (inactive)

Q: And the GI50 [29]?
A: > 100 µM (inactive)

Q: What about the GI50 [30] of the same compound?
A: > 100 µM (inactive)

Q: What about the GI50 [31] of the same compound?
A: > 100 µM (inactive)

Q: What about the GI50 [32] of the same compound?
A: > 100 µM (inactive)

Q: What about the GI50 [33] of the same compound?
A: 45.7 µM (inactive)

Q: And the GI50 [34]?
A: > 100 µM (inactive)

Q: What about the GI50 [35] of the same compound?
A: 47.5 µM (inactive)

Q: And the GI50 [36]?
A: > 100 µM (inactive)

Q: What about the GI50 [37] of the same compound?
A: > 100 µM (inactive)

Q: And the GI50 [38]?
A: > 100 µM (inactive)

Q: What about the GI50 [39] of the same compound?
A: > 100 µM (inactive)

Q: What about the GI50 [40] of the same compound?
A: > 100 µM (inactive)

Q: And the GI50 [41]?
A: > 100 µM

Q: And the GI50 [42]?
A: > 100 µM (inactive)

Q: And the GI50 [43]?
A: > 100 µM (inactive)

Q: And the GI50 [44]?
A: > 100 µM (inactive)

Q: What about the GI50 [45] of the same compound?
A: > 100 µM (inactive)

Q: And the GI50 [46]?
A: 66.1 µM (inactive)

Q: What about the GI50 [47] of the same compound?
A: > 100 µM (inactive)

Q: What about the GI50 [48] of the same compound?
A: > 100 µM (inactive)

Q: What about the GI50 [49] of the same compound?
A: > 100 µM (inactive)

Q: And the GI50 [50]?
A: > 100 µM (inactive)

Q: And the GI50 [51]?
A: 98.2 µM (inactive)

Q: And the GI50 [52]?
A: 58.6 µM (inactive)

Q: What about the GI50 [53] of the same compound?
A: 92.7 µM (inactive)

Q: What about the GI50 [54] of the same compound?
A: > 100 µM (inactive)

Q: Which GI50 [55] does the source give for `CCCCCCCCOC(=O)c1cc([N+](=O)[O-])c(Sc2[nH]cnc3ncnc2-3)c([N+](=O)[O-])c1` here?
A: 2.95 µM (inactive)

Q: What about the GI50 [1] of the same compound?
A: 0.507 µM (active)

Q: And the GI50 [2]?
A: 1.6 µM (inactive)

Q: What about the GI50 [3] of the same compound?
A: 1.76 µM (inactive)

Q: What about the GI50 [4] of the same compound?
A: 3.37 µM (inactive)

Q: And the GI50 [5]?
A: 2.18 µM (inactive)

Q: And the GI50 [56]?
A: 0.695 µM (active)

Q: What about the GI50 [6] of the same compound?
A: 1.47 µM (inactive)

Q: What about the GI50 [57] of the same compound?
A: 4.53 µM (inactive)

Q: What about the GI50 [7] of the same compound?
A: 0.857 µM (active)

Q: And the GI50 [8]?
A: 2.33 µM (inactive)

Q: What about the GI50 [9] of the same compound?
A: 2.45 µM (inactive)

Q: And the GI50 [58]?
A: 3 µM (inactive)

Q: And the GI50 [10]?
A: 5.62 µM (inactive)

Q: And the GI50 [11]?
A: 19.1 µM (inactive)

Q: And the GI50 [12]?
A: 0.748 µM (active)

Q: And the GI50 [13]?
A: 2.92 µM (inactive)

Q: What about the GI50 [14] of the same compound?
A: 7.69 µM (inactive)

Q: What about the GI50 [15] of the same compound?
A: 0.67 µM (active)

Q: What about the GI50 [16] of the same compound?
A: 3.15 µM (inactive)

Q: And the GI50 [17]?
A: 0.296 µM (active)

Q: And the GI50 [18]?
A: 1.65 µM (inactive)

Q: What about the GI50 [59] of the same compound?
A: 3.66 µM (inactive)

Q: And the GI50 [19]?
A: 3.4 µM (inactive)

Q: And the GI50 [20]?
A: 3.03 µM (inactive)

Q: What about the GI50 [21] of the same compound?
A: 2.9 µM (inactive)

Q: And the GI50 [22]?
A: 3.85 µM (inactive)

Q: What about the GI50 [23] of the same compound?
A: 0.425 µM (active)

Q: And the GI50 [60]?
A: 1.59 µM (inactive)

Q: What about the GI50 [24] of the same compound?
A: 1.84 µM (inactive)

Q: And the GI50 [25]?
A: 3.61 µM (inactive)

Q: And the GI50 [26]?
A: 1.05 µM (active)

Q: What about the GI50 [27] of the same compound?
A: 7.98 µM (inactive)

Q: And the GI50 [61]?
A: 7.19 µM (inactive)

Q: And the GI50 [28]?
A: 1.11 µM (active)

Q: What about the GI50 [29] of the same compound?
A: 1.77 µM (inactive)

Q: What about the GI50 [30] of the same compound?
A: 0.512 µM (active)

Q: And the GI50 [62]?
A: 1.35 µM (inactive)

Q: And the GI50 [31]?
A: 1.99 µM (inactive)

Q: And the GI50 [32]?
A: 1.01 µM (active)

Q: What about the GI50 [63] of the same compound?
A: 5.33 µM (inactive)

Q: What about the GI50 [33] of the same compound?
A: 2.47 µM (inactive)

Q: What about the GI50 [64] of the same compound?
A: 1.1 µM (active)

Q: What about the GI50 [34] of the same compound?
A: 0.288 µM (active)

Q: What about the GI50 [35] of the same compound?
A: 3.57 µM (inactive)

Q: What about the GI50 [36] of the same compound?
A: 4.07 µM (inactive)

Q: And the GI50 [65]?
A: 1.27 µM (inactive)

Q: What about the GI50 [37] of the same compound?
A: 3.12 µM (inactive)

Q: What about the GI50 [66] of the same compound?
A: 0.465 µM (active)

Q: What about the GI50 [38] of the same compound?
A: 3.49 µM (inactive)

Q: And the GI50 [39]?
A: 0.56 µM (active)

Q: And the GI50 [67]?
A: 2.06 µM (inactive)

Q: What about the GI50 [40] of the same compound?
A: 17 µM (inactive)

Q: And the GI50 [41]?
A: 2.23 µM

Q: What about the GI50 [42] of the same compound?
A: 18.1 µM (inactive)

Q: What about the GI50 [43] of the same compound?
A: 3.44 µM (inactive)

Q: What about the GI50 [44] of the same compound?
A: 0.366 µM (active)

Q: What about the GI50 [45] of the same compound?
A: 2.03 µM (inactive)

Q: And the GI50 [68]?
A: 3.21 µM (inactive)

Q: And the GI50 [46]?
A: 8.71 µM (inactive)

Q: What about the GI50 [47] of the same compound?
A: 3.45 µM (inactive)

Q: And the GI50 [48]?
A: 6.38 µM (inactive)

Q: And the GI50 [49]?
A: 2.47 µM (inactive)

Q: And the GI50 [50]?
A: 2.38 µM (inactive)

Q: What about the GI50 [51] of the same compound?
A: 1.52 µM (inactive)

Q: What about the GI50 [52] of the same compound?
A: 1.85 µM (inactive)

Q: And the GI50 [54]?
A: 2 µM (inactive)
